In ChEMBL document CHEMBL4477252, “Optimization of microtubule affinity regulating kinase (MARK) inhibitors with improved physical properties” (Bioorg Med Chem Lett, 2016):

Tests used:
[1] = biological target: cAMP-dependent protein kinase catalytic subunit alpha (Homo sapiens, UniProt P17612); experiment: Inhibition of recombinant human His-tagged PRKACA catalytic domain expressed in Escherichia coli by Z'-LYTE assay
Ephrin type-A receptor 8 = biological target: T1, Ephrin type-A receptor 8 (Homo sapiens, UniProt P29322); experiment: Inhibition of recombinant human GST-tagged cytoplasmic EPHA8 expressed in baculovirus expression system by Z'-LYTE assay
T1 sequence (P29322 whole entry): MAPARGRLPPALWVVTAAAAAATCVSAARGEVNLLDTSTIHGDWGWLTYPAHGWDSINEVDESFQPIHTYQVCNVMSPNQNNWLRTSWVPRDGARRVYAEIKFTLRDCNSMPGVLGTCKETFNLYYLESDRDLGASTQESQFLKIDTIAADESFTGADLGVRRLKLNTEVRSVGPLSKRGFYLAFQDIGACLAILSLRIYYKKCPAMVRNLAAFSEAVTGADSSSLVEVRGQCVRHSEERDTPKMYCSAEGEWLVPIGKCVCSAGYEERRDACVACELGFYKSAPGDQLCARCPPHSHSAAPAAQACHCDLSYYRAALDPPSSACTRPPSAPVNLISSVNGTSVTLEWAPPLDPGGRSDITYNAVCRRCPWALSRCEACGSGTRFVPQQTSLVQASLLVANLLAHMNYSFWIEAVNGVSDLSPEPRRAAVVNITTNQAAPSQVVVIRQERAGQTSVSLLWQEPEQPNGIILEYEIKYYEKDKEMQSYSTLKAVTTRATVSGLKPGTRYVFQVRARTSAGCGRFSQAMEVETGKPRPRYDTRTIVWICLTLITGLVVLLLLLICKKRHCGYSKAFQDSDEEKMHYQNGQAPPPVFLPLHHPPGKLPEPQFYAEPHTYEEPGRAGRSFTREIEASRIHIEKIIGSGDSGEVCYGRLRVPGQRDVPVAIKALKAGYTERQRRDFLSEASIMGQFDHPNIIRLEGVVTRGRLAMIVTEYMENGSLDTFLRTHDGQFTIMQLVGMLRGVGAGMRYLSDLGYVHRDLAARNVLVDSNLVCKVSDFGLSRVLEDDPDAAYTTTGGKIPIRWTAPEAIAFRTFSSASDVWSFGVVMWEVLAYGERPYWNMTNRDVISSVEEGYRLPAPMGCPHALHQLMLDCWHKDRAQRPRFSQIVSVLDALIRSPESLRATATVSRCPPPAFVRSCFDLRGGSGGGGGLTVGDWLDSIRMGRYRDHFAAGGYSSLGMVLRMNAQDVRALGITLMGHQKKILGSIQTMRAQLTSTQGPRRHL

[2] = biological target: T2, MAP kinase-activated protein kinase 5 (Homo sapiens, UniProt Q8IW41); experiment: Inhibition of full-length recombinant human His-tagged MAPKAPK5 expressed in baculovirus expression system by Z'-LYTE assay
T2 sequence (Q8IW41 whole entry): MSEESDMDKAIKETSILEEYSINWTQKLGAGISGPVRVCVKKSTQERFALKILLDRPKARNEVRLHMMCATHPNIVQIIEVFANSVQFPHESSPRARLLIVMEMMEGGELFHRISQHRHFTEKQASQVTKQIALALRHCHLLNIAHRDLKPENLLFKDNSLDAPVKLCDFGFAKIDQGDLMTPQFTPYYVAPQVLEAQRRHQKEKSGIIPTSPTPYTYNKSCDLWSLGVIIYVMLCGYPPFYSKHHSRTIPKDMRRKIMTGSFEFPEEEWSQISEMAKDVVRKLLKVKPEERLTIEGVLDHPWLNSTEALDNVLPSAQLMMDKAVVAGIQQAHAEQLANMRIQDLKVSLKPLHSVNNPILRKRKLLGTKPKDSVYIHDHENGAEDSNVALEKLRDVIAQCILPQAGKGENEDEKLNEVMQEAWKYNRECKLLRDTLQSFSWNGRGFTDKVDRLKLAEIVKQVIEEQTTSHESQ

[3] = biological target: Protein kinase C theta type (Homo sapiens, UniProt Q04759); experiment: Inhibition of full-length recombinant human His-tagged PRKCQ expressed in baculovirus expression system by Z'-LYTE assay
[4] = biological target: MAP kinase-activated protein kinase 2 (Homo sapiens, UniProt P49137); experiment: Inhibition of full-length recombinant human His-tagged MAPKAPK2 expressed in Escherichia coli by Z'-LYTE assay
[5] = biological target: Mast/stem cell growth factor receptor Kit (Homo sapiens, UniProt P10721); experiment: Inhibition of recombinant human His-tagged cytoplasmic KIT expressed in baculovirus expression system by Z'-LYTE assay
[6] = biological target: MAP/microtubule affinity-regulating kinase 3 (Homo sapiens, UniProt P27448); experiment: Inhibition of full-length recombinant human GST-tagged MARK3 expressed in baculovirus expression system using biotinylated-Cdc25C peptide substrate measured after 2 hrs by HTRF assay
[7] = biological target: T3, Tyrosine-protein kinase ITK/TSK (Homo sapiens, UniProt Q08881); experiment: Inhibition of full-length recombinant human GST-tagged ITK expressed in baculovirus expression system by Z'-LYTE assay
T3 sequence (Q08881 whole entry): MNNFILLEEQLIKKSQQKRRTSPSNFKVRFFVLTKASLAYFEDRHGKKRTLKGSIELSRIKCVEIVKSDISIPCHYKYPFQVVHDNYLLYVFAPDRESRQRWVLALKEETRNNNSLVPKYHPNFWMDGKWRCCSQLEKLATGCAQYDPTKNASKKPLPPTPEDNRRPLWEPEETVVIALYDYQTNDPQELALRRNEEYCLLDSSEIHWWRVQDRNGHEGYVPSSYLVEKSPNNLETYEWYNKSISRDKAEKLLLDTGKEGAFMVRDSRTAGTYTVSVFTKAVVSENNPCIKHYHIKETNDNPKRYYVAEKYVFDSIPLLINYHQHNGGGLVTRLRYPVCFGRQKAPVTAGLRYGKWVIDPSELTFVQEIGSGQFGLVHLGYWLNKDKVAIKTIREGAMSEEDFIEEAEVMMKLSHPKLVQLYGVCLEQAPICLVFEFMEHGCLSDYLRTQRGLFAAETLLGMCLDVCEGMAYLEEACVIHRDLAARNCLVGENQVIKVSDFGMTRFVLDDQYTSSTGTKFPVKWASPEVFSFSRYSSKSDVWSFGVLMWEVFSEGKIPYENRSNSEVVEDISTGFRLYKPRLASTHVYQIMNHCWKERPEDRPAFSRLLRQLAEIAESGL

[8] = biological target: Serine/threonine-protein kinase Chk2 (Homo sapiens, UniProt O96017); experiment: Inhibition of full-length recombinant human His-tagged CHEK2 expressed in baculovirus expression system by Z'-LYTE assay
[9] = biological target: Casein kinase I isoform alpha (Homo sapiens, UniProt P48729); experiment: Inhibition of recombinant human GST-tagged cytoplasmic CSNK1A1 expressed in baculovirus expression system by Z'-LYTE assay
[10] = biological target: Tyrosine-protein kinase ABL1 (Homo sapiens, UniProt P00519); experiment: Inhibition of full-length human His-tagged ABL1 expressed in baculovirus expression system by Z'-LYTE assay
Sequence of Tyrosine-protein kinase ABL1 (P00519 whole entry): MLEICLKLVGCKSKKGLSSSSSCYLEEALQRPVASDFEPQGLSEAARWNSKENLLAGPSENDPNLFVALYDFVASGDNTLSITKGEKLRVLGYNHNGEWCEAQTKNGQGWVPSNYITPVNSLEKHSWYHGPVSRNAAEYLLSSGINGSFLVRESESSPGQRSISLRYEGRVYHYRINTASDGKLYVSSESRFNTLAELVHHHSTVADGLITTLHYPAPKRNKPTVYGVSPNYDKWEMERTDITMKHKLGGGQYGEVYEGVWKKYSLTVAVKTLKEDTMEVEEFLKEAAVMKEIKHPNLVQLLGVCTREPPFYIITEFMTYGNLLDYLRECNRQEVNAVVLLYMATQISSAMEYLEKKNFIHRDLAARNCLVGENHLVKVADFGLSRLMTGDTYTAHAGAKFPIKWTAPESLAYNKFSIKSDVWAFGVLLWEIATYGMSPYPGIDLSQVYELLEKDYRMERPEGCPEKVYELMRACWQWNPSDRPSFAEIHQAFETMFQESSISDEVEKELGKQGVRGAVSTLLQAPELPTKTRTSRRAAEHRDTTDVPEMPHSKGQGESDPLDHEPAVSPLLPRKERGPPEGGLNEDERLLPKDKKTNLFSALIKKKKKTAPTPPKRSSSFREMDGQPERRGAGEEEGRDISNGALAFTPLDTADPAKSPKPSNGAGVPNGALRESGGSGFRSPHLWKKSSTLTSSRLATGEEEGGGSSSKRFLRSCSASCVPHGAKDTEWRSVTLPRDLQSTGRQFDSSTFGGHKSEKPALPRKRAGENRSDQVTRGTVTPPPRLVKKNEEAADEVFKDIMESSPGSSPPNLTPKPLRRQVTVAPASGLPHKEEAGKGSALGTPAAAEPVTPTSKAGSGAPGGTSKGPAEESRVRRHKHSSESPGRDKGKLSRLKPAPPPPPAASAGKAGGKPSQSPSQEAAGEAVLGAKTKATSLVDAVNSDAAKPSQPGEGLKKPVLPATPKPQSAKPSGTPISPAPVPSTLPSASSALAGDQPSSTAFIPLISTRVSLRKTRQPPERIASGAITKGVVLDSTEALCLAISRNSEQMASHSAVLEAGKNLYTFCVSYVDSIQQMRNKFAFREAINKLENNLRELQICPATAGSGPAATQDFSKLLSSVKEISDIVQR

Sequence of Casein kinase I isoform alpha (P48729 whole entry, canonical isoform): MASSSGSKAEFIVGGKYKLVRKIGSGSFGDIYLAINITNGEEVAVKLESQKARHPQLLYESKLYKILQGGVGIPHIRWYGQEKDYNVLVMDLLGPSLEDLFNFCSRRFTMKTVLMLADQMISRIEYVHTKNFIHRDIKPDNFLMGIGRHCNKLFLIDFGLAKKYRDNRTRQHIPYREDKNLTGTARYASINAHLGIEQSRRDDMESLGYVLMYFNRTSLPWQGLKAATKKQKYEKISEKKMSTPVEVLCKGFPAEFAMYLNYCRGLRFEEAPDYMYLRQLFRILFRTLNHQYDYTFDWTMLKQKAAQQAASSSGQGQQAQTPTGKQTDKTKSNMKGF
Sequence of Protein kinase C theta type (Q04759 whole entry): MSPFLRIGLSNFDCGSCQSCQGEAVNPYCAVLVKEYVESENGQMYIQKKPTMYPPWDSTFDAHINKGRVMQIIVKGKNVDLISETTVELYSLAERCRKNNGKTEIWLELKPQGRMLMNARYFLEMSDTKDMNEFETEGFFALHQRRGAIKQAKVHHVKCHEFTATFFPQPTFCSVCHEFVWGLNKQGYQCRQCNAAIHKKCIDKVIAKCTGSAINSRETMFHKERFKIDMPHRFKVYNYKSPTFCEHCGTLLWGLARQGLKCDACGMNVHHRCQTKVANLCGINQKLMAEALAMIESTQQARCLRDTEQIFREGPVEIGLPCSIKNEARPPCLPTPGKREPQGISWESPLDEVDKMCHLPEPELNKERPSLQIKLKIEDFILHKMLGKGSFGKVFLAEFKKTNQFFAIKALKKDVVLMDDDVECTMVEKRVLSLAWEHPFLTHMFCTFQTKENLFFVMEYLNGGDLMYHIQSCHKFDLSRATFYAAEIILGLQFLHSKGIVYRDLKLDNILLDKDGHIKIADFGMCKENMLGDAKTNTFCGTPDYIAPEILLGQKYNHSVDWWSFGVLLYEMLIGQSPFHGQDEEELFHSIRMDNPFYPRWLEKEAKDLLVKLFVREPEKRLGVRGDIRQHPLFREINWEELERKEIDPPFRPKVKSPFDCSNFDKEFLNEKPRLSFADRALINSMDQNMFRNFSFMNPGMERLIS
Sequence of MAP/microtubule affinity-regulating kinase 3 (P27448 whole entry): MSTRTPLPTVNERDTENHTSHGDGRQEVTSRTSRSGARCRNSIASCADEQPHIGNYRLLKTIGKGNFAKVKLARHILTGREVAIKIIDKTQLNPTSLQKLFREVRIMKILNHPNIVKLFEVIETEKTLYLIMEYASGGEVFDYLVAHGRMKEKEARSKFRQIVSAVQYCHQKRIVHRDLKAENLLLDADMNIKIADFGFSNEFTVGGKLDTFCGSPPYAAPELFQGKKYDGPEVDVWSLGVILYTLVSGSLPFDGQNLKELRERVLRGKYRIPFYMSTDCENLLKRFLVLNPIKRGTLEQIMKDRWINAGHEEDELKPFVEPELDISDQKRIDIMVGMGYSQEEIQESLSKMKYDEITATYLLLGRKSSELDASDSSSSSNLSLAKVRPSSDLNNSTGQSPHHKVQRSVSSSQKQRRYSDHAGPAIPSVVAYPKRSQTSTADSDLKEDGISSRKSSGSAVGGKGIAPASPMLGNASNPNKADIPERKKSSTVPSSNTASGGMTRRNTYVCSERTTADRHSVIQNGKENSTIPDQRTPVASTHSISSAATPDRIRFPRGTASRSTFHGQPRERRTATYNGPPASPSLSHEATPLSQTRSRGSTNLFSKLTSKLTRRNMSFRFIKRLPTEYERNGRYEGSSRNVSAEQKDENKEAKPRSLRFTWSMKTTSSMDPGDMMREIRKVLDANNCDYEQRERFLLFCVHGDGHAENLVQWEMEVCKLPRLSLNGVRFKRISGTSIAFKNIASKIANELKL
Sequence of Serine/threonine-protein kinase Chk2 (O96017 whole entry, canonical isoform): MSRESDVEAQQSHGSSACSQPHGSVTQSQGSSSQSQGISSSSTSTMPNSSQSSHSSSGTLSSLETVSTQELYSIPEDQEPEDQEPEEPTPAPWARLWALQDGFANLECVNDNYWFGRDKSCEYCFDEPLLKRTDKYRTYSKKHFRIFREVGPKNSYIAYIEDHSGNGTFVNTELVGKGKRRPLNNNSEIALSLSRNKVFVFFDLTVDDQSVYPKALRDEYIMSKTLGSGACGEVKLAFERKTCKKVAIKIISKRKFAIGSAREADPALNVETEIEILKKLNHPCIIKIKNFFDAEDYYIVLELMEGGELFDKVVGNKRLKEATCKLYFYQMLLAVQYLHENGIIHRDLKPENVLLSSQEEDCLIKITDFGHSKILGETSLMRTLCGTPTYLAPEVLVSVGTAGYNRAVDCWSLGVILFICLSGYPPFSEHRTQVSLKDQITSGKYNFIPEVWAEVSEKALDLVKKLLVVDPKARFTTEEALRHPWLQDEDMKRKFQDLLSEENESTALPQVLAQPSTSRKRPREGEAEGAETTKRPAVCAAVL
Sequence of MAP kinase-activated protein kinase 2 (P49137 whole entry): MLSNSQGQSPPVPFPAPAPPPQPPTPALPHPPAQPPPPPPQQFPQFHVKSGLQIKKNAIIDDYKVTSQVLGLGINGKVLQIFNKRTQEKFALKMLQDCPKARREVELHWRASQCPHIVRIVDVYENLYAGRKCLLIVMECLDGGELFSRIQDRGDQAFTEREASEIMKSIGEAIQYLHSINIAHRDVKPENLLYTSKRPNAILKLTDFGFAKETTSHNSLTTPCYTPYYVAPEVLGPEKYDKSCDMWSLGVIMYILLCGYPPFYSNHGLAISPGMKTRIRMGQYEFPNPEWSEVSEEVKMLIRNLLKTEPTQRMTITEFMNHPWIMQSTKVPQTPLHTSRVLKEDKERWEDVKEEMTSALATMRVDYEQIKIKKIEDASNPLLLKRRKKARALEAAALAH
Sequence of Mast/stem cell growth factor receptor Kit (P10721 whole entry): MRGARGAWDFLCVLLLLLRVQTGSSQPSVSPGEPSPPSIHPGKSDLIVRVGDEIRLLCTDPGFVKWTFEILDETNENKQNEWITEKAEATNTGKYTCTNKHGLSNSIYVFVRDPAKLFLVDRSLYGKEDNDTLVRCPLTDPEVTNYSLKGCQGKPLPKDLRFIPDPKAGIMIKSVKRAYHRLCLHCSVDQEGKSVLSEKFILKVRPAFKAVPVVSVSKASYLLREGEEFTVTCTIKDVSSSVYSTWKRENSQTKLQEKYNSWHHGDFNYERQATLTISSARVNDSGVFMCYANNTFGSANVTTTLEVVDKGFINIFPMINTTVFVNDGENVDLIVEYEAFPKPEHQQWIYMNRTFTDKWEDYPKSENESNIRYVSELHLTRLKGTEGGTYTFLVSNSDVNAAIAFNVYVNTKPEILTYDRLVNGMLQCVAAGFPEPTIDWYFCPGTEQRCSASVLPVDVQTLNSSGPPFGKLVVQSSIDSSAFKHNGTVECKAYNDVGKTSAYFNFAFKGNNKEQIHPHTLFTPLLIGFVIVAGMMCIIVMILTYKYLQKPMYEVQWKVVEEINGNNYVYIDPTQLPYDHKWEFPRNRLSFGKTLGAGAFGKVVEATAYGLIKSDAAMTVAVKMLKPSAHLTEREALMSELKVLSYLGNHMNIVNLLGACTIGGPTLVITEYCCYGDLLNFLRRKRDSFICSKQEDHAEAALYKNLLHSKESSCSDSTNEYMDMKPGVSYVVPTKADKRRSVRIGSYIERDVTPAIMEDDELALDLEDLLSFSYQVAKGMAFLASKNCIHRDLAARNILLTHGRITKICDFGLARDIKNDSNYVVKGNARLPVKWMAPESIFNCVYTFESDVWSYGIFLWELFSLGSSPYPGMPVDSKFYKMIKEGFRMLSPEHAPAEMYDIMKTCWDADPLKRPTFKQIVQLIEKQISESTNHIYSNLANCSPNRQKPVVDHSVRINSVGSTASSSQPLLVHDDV

| SMILES | IC50 [1] | IC50 (Ephrin type-A receptor 8) | IC50 [2] | IC50 [3] | IC50 [4] | IC50 [5] | IC50 [6] | IC50 [7] | IC50 [8] | IC50 [9] | IC50 [10] |
| --- | --- | --- | --- | --- | --- | --- | --- | --- | --- | --- | --- |
| O=C(NCC(F)(F)F)c1cc(-c2cnn3cc(-c4ccc(OCCN5CCCCC5)cc4)cnc23)cs1 | 15 µM | 21 nM | 9.6 µM | 6.6 µM | 55 µM | 2700 nM | 1 nM | 26 nM | 450 nM | 230 nM | < 10 nM |
| Cn1cc(-c2cnc3c(-c4csc(C(=O)NCC(F)(F)F)c4)cnn3c2)cn1 | > 100 µM | 29 nM | 19 µM | > 100 µM | > 100 µM | 810 nM | 6 nM | 94 nM | 420 nM | 630 nM | < 10 nM |
| Cn1cc(-c2cnc3c(-c4csc(C(=O)N[C@@H]5CCCC[C@@H]5N)c4)cnn3c2)cn1 (racemic) | 0.027 µM | 2.9 nM | 1.4 µM | 0.27 µM | 0.39 µM | 690 nM | ≤ 0.5 nM | 26 nM | 24 nM | 2100 nM | 1.3 nM |
| Cc1sc(C(=O)N[C@@H]2[C@H](N)CCCC2(F)F)cc1-c1cnn2cc(Cl)cnc12 | 3 µM | 16000 nM | > 100 µM | 8.7 µM | 7.8 µM | > 100000 nM | 5 nM | 4200 nM | 390 nM | 18000 nM | 9100 nM |
